Results taken from US12428405B2, “Chalcone-based chemotherapeutic compound for triple negative breast cancer” (QATAR UNIVERSITY, priority 2019, dated 2025).
Like-named read-outs stand apart in the source and are kept apart here.

How the values were obtained:
[1] = test system: MDA-MB-231; assay: Soft agar colony formation assay; format: cell-based; conditions: MDA-MB-231; soft agar
[2] = test system: MDA-MB-468; assay: Soft agar colony formation assay; format: cell-based; conditions: MDA-MB-468; soft agar
[3] = test system: MCF-7; assay: Soft agar colony formation assay; format: cell-based; conditions: MCF-7; soft agar
[4] = test system: MDA-MB-231; assay: Migration (wound healing) assay; format: cell-based; conditions: for activity at 5 µM: read-out: % migration; for IC50: 24 hours of treatment, 5 concentrations, two independent experiments, read-out: Migratory IC50 MDA-MB-231
Description: MDA-MB-231 cells were seeded in 12-wells plates at a concentration of 500,000 cells/well and were incubated in complete RPMI culture medium until covering the well and reaching around 90-100% confluency. Following, cells were serum starved for 4 hours and a 200 μl pipette tip was used to create the scratch followed by cell washing with PBS twice. […] Microscopic pictures were then taken, and cell migration was quantified based on the wound diameter at 24 hours minus the initial diameter at time zero, as represented by the following equation: % Migration=[…]

[5] = test system: Epithelial Mesenchymal Transition (EMT) markers in MDA-MB-231 cells; assay: Western blot of EMT markers; format: cell-based; conditions: cell line not named in the sentence (FIG. 3.24, FIG. 3.25)
Description: Proteins were quantified with the Pierce BCA Protein Assay Kit (Thermo Scientific, USA) following cell lysis. SDS-PAGE was prepared at a concentration of 10% for all studied proteins. All samples were loaded at 40 μg per 1.5 mm 15 wells comb. Running of stained samples was performed using two steps gel electrophoresis (60 Volts for 20 minutes followed by 120 Volts for 1 hour). Afterwards, gels were transferred into PVDF membrane at 100 Voltage for 1.5-2.0 hours using wet transfer. Following transfer, PVDF membranes were blocked with 5% skimmed milk and washed three times. Primary antibodies (Table 2.2) were prepared, then PVDF membrane were incubated with them overnight with gentle shaking at 4° C. Afterwards, membranes were washed three times and incubated with their respective secondary antibodies for 1-2 hours with gentle shaking at room temperature. Pierce™ ECL Western Blotting Substrate was used to detect proteins by chemiluminescence. Blots were imaged using the ibrightCL1000 imaging system.

[6] = test system: MDA-MB-231; assay: Cell cycle analysis (flow cytometry); format: cell-based; conditions: 10 μM, 48 hours post treatment; N=1
Description: The MDA-MB-231, MDA-MB-468 and MCF-7 cell lines were seeded on 6-well plates at a concentration of 200,000 cells per well and were maintained in culture supplemented with 10% fetal bovine serum for 8-10 hours. The same day, media was removed and cells were incubated overnight with serum free media. Second day, cells were treated with the compounds. Adherent and floating cell populations were harvested at 48 hours after treatment with different concentrations of the compounds and counted.
Afterward, cells were washed with cold PBS once, centrifuged at 4° C. and fixed with 1.5 ml cold 70% ethanol added drop wise while slowly vortexing. Samples were then stored at […] Following fixation, cells were pelleted and washed with ice-cold PBS. Equal aliquots were collected and resuspended in 300 μl of Tali® Cell Cycle Kit and incubated at 37 C. with slow shaking speed for 30 minutes in the dark. Accuri C6 flow cytometer (BD Biosciences, USA) was used to analyze the cells. The FlowJo V10 software was used to process and evaluate the results.

[7] = test system: Chorioallantoic membrane (CAM) of the chicken embryos; assay: Chorioallantoic membrane (CAM) angiogenesis assay; format: in vivo; conditions: treated at embryonic day 4, read at day 8; 2 μl of 5 mM stock under coverslip
Description: Fertilized white Leghorn chicken embryos (Arab Qatari for Poultry Production, Qatar) were purchased and incubated at 60% humidity at 37° C. in MultiQuip incubator. Ethics approval was obtained from Qatar University-Institutional Bio-safety committee. The embryos were treated in ovo at embryonic day 4 with three of the synthesized chalcones (5, 13 and 14) compared to DMSO treated controls. Briefly, a small cut was made at the top of the shells of the eggs and each treatment was added under a round coverslip at 2 μl of 5 mM stock solutions. Microscopic pictures were taken at embryonic day 8. Embryos treated with compounds 13 and 14 were sacrificed at embryonic day 9 for clinical observations. Quantification of blood vessels was performed manually and the different treatment groups were compared.

[8] = Homo sapiens, MDA-MB-231, 5 μM, 24 hours post treatment, control = 100, Mean ± SEM (N = 2 × 2)

Question: How did the “colony formation (in words)” value [1] turn out when `COc1cc2c(c(OC)c1OC)-c1ccc(OC)c(=O)cc1[C@@H](NC(C)=O)CC2` [Colchicine, reference compound] was run?
Answer: Its value is “significantly inhibited the ability of cells to form colonies”.

Question: And the “colony formation (in words)” value [2]?
Answer: The value was “significantly inhibited the ability of cells to form colonies”.

Question: And the “colony formation (in words)” value [3]?
Answer: Its value is “significantly inhibited the ability of cells to form colonies”.

Question: And the activity at 5 µM ([4]; Homo sapiens, MDA-MB-231, 24 h)?
Answer: The activity at 5 µM was 47.45 ± 0.25%.

Question: What about the “expression of β-catenin and its phosphorylated form” value [5] of the same compound?
Answer: The value was “upregulated phospho-3-catenin”.

Question: With `O=C(/C=C/c1ccc(N2CCCC2)cc1)c1cccc(Cl)c1` [Compound 1, (E)-1-(3-chlorophenyl)-3-(4-(pyrrolidin-1-yl)phenyl) prop-2-en-1-one] as the compound, how does the activity at 5 µM [4, 8] read?
Answer: The activity at 5 µM was 74.7 ± 5.8%.

Question: Which “cell cycle shifts (in words)” value [6] does the source give for `CS(=O)(=O)c1ccc(C(=O)/C=C/c2ccc(N3CCCC3)cc2)cc1` [Compound 2, (E)-1-(4-(methylsulfonyl)phenyl)-3-(4-(pyrrolidin-1-yl)phenyl) prop-2-en-1-one] here?
Answer: The value was “slight S phase arrest”.

Question: What about the activity at 5 µM [4, 8] of the same compound?
Answer: Its activity at 5 µM is 67.3 ± 53.9%.

Question: With `CS(=O)(=O)c1ccc(C(=O)/C=C/c2ccc(N3CCOCC3)cc2)cc1` [Compound 3, (E)-1-(4-(methylsulfonyl)phenyl)-3-(4-morpholinophenyl) prop-2-en-1-one] as the compound, how does the activity at 5 µM [4, 8] read?
Answer: The activity at 5 µM was 65.7 ± 52.4%.

Question: Which activity at 5 µM [4, 8] does the source give for `CS(=O)(=O)c1ccc(C(=O)/C=C/c2ccc(N3CCCCC3)cc2)cc1` [Compound 4, (E)-1-(4-(methylsulfonyl)phenyl)-3-(4-(piperidin-1-yl)phenyl) prop-2-en-1-one] here?
Answer: Its activity at 5 µM is 70.7 ± 55.9%.

Question: What does the source list for `CSc1ccc(C(=O)/C=C/c2ccc(N3CCOCC3)cc2)cc1` [Compound 5, (E)-1-(4-(methylthio)phenyl)-3-(4-morpholinophenyl) prop-2-en-1-one]?
Answer: cell cycle shifts (in words) [6]: no major cell cycle shifts; activity at 5 µM [4, 8]: 64.3 ± 3.32%; IC50 ([4]; Homo sapiens, MDA-MB-231): 6140 ± 620 nM; inhibition of blood vessels development vs control [7]: 68.49±4.42%

Question: For `CSc1ccc(C(=O)/C=C/c2ccc(N3CCCCC3)cc2)cc1` [Compound 6, (E)-1-(4-(methylthio)phenyl)-3-(4-(piperidin-1-yl)phenyl) prop-2-en-1-one], which activity at 5 µM [4, 8] is on record?
Answer: The activity at 5 µM was 69.5 ± 3.92%.

Question: With `CSc1ccc(C(=O)/C=C/c2ccc(N3CCCC3)cc2)cc1` [Compound 7, (E)-1-(4-(methylthio)phenyl)-3-(4-(pyrrolidin-1-yl)phenyl) prop-2-en-1-one] as the compound, how does the activity at 5 µM [4, 8] read?
Answer: Its activity at 5 µM is 71.8 ± 0.06%.

Question: What does the source list for `COc1cccc(C(=O)/C=C/c2ccc(N3CCCC3)cc2)c1` [Compound 8, (E)-1-(3-methoxyphenyl)-3-(4-(pyrrolidin-1-yl)phenyl) prop-2-en-1-one]?
Answer: activity at 5 µM [4, 8]: 48.7 ± 2.85%; IC50 ([4]; Homo sapiens, MDA-MB-231): 3000 ± 460 nM

Question: What does the source list for `COc1cccc(C(=O)/C=C/c2ccc(N3CCCCC3)cc2)c1` [Compound 9, (E)-1-(3-methoxyphenyl)-3-(4-(piperidin-1-yl)phenyl)prop-2-en-1-one]?
Answer: cell cycle shifts (in words) [6]: no major cell cycle shifts; activity at 5 µM [4, 8]: 75 ± 0.86%

Question: Which results are given for `O=C(/C=C/c1ccc(N2CCCC2)cc1)c1ccc2c(c1)OCO2` [Compound 10, (E)-1-(benzo[d][1,3]dioxol-5-yl)-3-(4-(pyrrolidin-1-yl)phenyl)prop-2-en-1-one]?
Answer: activity at 5 µM [4, 8]: 53.5 ± 5.98%; IC50 ([4]; Homo sapiens, MDA-MB-231): 4800 ± 720 nM

Question: How did the activity at 5 µM [4, 8] turn out when `O=C(/C=C/c1ccc(N2CCOCC2)cc1)c1ccc(N2CCNCC2)cc1` [Compound 11, (E)-3-(4-morpholinophenyl)-1-(4-(piperazin-1-yl)phenyl) prop-2-en-1-one] was run?
Answer: Its activity at 5 µM is 75.1 ± 0.86%.

Question: What does the source list for `COc1ccccc1C(=O)/C=C/c1ccc(N(CCCl)CCCl)cc1` [Compound 12, (E)-3-(4-(Bis(2-chloroethyl)amino)phenyl)-1-(2-methoxyphenyl) prop-2-en-1-one]?
Answer: IC50 [4]: 1990 ± 190 nM; IC50 ([4]; Homo sapiens, MDA-MB-231, 24 h): 2000 ± 188 nM; activity at 5 µM [4, 8]: 32.8 ± 0.68%

Question: With `CC(=O)O[C@H]1C(=O)[C@@]2(C)[C@H]([C@H](OC(=O)c3ccccc3)[C@]3(O)C[C@H](OC(=O)[C@H](O)[C@@H](NC(=O)c4ccccc4)c4ccccc4)C(C)=C1C3(C)C)[C@]1(OC(C)=O)CO[C@@H]1C[C@@H]2O` [Paclitaxel, reference compound] as the compound, how does the “colony formation (in words)” value [1] read?
Answer: Its value is “significantly inhibited the ability of cells to form colonies”.

Question: What about the “colony formation (in words)” value [2] of the same compound?
Answer: Its value is “significantly inhibited the ability of cells to form colonies”.

Question: What about the “colony formation (in words)” value [3] of the same compound?
Answer: Its value is “significantly inhibited the ability of cells to form colonies”.

Question: What about the activity at 5 µM [4, 8] of the same compound?
Answer: Its activity at 5 µM is 39.3 ± 5.16%.

Question: What about the IC50 ([4]; Homo sapiens, MDA-MB-231) of the same compound?
Answer: The IC50 was 2010 ± 220 nM.
